Earlier results on 2 compounds are cited in patent US12533334B2, “Compositions and methods for modulating equine fatty acid profiles” (KENTUCKY EQUINE RESEARCH, INC., priority 2021, dated 2026).

Structures are written as SMILES.

The test system of this data set is aspirin-induced gastric hemorrhage. The settings on record: rats subjected to aspirin-induced gastric hemorrhage, dietary supplementation.

As for `CCCCC/C=C\C/C=C\C/C=C\CCCCC(=O)O` [GLA, gamma linolenic acid], the Gastric hemorrhage entry is “no gastric hemorrhage”.
On to `CCCCC/C=C\C/C=C\CCCCCCCC(=O)O` [LA, linoleic acid], for which the Gastric hemorrhage was 3 of 8.
